# pIC50: −log10 of the molar value. Counter-ions that a name gives are not always drawn.
# Assays:
# MV-4-11 cells = assay: In vitro cell proliferation assay (CellTiter-Glo), MV-4-11; assay type: cell-based; conditions: Homo sapiens, MV4-11, 72 hours
# Procedure: In Vitro Cell Proliferation Assay
# MV-4-11 (biphenotypic B myelomonocytic leukemia) cell line was obtained from ATCC.
# Media for MV-4-11 cell line contained RPMI 1640 or EMEM plus 2 mM Glutamine and 10% Fetal bovine serum.
# BaF3-PIM1 and MV-4-11 cells were seeded at 125 cells/well and 1250 cells/well respectively in a 384-well white plates in complete medium and treated with compounds dissolved in 0.1% DMSO, 24 h after seeding.
# The cells were incubated at 37° C. and 5% CO2 and after 72 hours the plates were processed using CellTiter-Glo assay (Promega) following the manufacturer's instruction.
# CellTiter-Glo was a homogenous method based on the quantification of the ATP present, an indicator of metabolitically active cells. ATP was quantified using a system based on luciferase and D-luciferin resulting into light generation. The luminescent signal was proportional to the number of cells present in culture.
# Briefly 25 μl/well reagent solution were added to each wells and after 5 minutes shacking microplates were red by Envision (PerkinElmer) luminometer. The luminescent signal was proportional to the number of cells present in culture.
# Inhibitory activity was evaluated comparing treated versus control data using Assay Explorer (MDL) program. IC50 was calculated using sigmoidal interpolation curve.
# human PIM2 = human PIM2 (Homo sapiens (Human), UniProt Q9P1W9); assay: PIM2 kinase inhibition assay: Dowex technique; assay type: biochemical; conditions: ATP 4 μM, Aktide 5 μM, enzyme 1.5 nM; read-out: PIM-2 IC50
# Chain of human PIM2 (Q9P1W9 whole entry): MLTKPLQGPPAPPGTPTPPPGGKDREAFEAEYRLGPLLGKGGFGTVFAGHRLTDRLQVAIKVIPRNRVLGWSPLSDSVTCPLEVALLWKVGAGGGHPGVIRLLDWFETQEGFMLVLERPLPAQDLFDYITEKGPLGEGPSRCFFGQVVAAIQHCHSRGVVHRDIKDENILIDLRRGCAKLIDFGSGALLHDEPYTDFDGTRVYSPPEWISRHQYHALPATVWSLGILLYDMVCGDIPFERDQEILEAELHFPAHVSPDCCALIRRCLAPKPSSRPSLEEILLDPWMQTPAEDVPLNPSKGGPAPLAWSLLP
# Procedure, shortened: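 Full-length human PIM2 (1.5 nM) phosphorylated Aktide (5 μM) with 4 μM ATP plus 1 nM 33P-γ-ATP (final concentrations). Buffer: 50 mM HEPES pH 7.5, 1 mM MgCl2, 1 mM DTT, 3 μM Na3VO4, 0.2 mg/mL BSA. Radiolabel incorporation was read by the robotized Dowex method used for PIM1.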
# human PIM1 = human PIM1 (Homo sapiens (Human), UniProt P11309); assay: Biochemical assay for inhibitors of PIM1 kinase activity (trans-phosphorylation, Dowex technique); conditions: ATP 200 μM, Aktide 25 μM, enzyme 1 nM; read-out: PIM-1 IC50
# Chain of human PIM1 (P11309 whole entry): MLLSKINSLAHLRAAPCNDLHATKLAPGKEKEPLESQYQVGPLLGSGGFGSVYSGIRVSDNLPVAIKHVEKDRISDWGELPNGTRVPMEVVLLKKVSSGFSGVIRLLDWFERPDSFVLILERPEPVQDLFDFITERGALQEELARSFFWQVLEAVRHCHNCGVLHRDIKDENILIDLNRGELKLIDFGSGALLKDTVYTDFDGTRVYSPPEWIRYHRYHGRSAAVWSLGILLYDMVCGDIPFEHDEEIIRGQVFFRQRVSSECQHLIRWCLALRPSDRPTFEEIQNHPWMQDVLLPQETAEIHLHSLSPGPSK
# Procedure, shortened: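 Full-length human PIM1 (1 nM) phosphorylates Aktide (25 μM) with 200 μM ATP plus 6 nM ^33P-γ-ATP in HEPES 50 mM pH 7.5, 10 mM MgCl2, 1 mM DTT, 3 μM NaVO3, 0.2 mg/mL BSA. Unreacted ATP captured on Dowex resin, supernatant β-counted; IC50 from ten-point 1:3 dilution sigmoidal fit.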
# BaF3-PIM1 cells = assay: In vitro cell proliferation assay (CellTiter-Glo), BaF3-PIM1; assay type: cell-based; conditions: 72 hours
SMILES,pIC50 (MV-4-11 cells),pIC50 (human PIM2),pIC50 (human PIM1),pIC50 (BaF3-PIM1 cells)
"CN(C)Cc1ccc(-c2c(-c3cccc(OC(F)(F)F)c3)cc3n2[C@@H](CCN)CNC3=O)cc1 [Compound 101, (4S)-4-(2-aminoethyl)-6-{4-[(dimethylamino)methyl]phenyl}-7-[3-(trifluoromethoxy)phenyl]-3,4-dihydropyrrolo[1,2-a]pyrazin-1(2H)-one hydrochloride]",6.03,8.05,9.00,6.53
"NCCC[C@H]1CNC(=O)c2cc(-c3cccc(OC(F)(F)F)c3)c(-c3ccccc3)n21 [Compound 102, (4S)-4-(3-aminopropyl)-6-phenyl-7-[3-(trifluoromethoxy)phenyl]-3,4-dihydropyrrolo[1,2-a]pyrazin-1(2H)-one hydrochloride]",5.79,6.81,7.72,6.08
"NCCC[C@H]1CNC(=O)c2cc(-c3cccc(OC(F)(F)F)c3)c(-c3ccsc3)n21 [Compound 103, (4S)-4-(3-aminopropyl)-6-(thiophen-3-yl)-7-[3-(trifluoromethoxy)phenyl]-3,4-dihydropyrrolo[1,2-a]pyrazin-1(2H)-one hydrochloride]",5.53,6.82,7.96,5.93
"CC(=O)c1ccc(-c2c(-c3cccc(OC(F)(F)F)c3)cc3n2[C@@H](CCCN)CNC3=O)cc1 [Compound 110, (4S)-6-(4-acetylphenyl)-4-(3-aminopropyl)-7-[3-(trifluoromethoxy)phenyl]-3,4-dihydropyrrolo[1,2-a]pyrazin-1(2H)-one hydrochloride]",5.50,6.89,7.66,5.41
"NCC[C@H]1CNC(=O)c2cc(-c3cccc(OC(F)(F)F)c3)c(-c3ccc4c(c3)OCO4)n21 [Compound 112, (4S)-4-(2-aminoethyl)-6-(1,3-benzodioxol-5-yl)-7-[3-(trifluoromethoxy)phenyl]-3,4-dihydropyrrolo[1,2-a]pyrazin-1(2H)-one hydrochloride]",5.75,7.80,8.22,7.15
"CN(C)c1ccc(-c2c(-c3cccc(OC(F)(F)F)c3)cc3n2[C@@H](CCN)CNC3=O)cc1 [Compound 115, (4S)-4-(2-aminoethyl)-6-[4-(dimethylamino)phenyl]-7-[3-(trifluoromethoxy)phenyl]-3,4-dihydropyrrolo[1,2-a]pyrazin-1(2H)-one hydrochloride]",6.09,7.34,8.52,7.12
"COc1ccc(-c2c(-c3cccc(OC(F)(F)F)c3)cc3n2[C@@H](CCN)CNC3=O)cc1 [Compound 116, (4S)-4-(2-aminoethyl)-6-(4-methoxyphenyl)-7-[3-(trifluoromethoxy)phenyl]-3,4-dihydropyrrolo[1,2-a]pyrazin-1(2H)-one hydrochloride]",6.06,7.66,8.52,6.85
"NCC[C@H]1CNC(=O)c2cc(-c3cccc(OC(F)(F)F)c3)c(-c3ccc4ccccc4c3)n21 [Compound 118, (4S)-4-(2-aminoethyl)-6-(naphthalen-2-yl)-7-[3-(trifluoromethoxy)phenyl]-3,4-dihydropyrrolo[1,2-a]pyrazin-1(2H)-one hydrochloride]",6.12,6.82,7.57,6.51
"NCC[C@H]1CNC(=O)c2cc(-c3cccc(OC(F)(F)F)c3)c(-c3ccc(S(N)(=O)=O)cc3)n21 [Compound 120, 4-{(4S)-4-(2-aminoethyl)-1-oxo-7-[3-(trifluoromethoxy)phenyl]-1,2,3,4-tetrahydropyrrolo[1,2-a]pyrazin-6-yl}benzenesulfonamide hydrochloride]",5.27,8.52,9.00,5.87
"NCC[C@H]1CNC(=O)c2cc(-c3cccc(OC(F)(F)F)c3)c(-c3cccc(F)c3)n21 [Compound 121, (4S)-4-(2-aminoethyl)-6-(3-fluorophenyl)-7-[3-(trifluoromethoxy)phenyl]-3,4-dihydropyrrolo[1,2-a]pyrazin-1(2H)-one hydrochloride]",6.18,7.92,8.52,7.07
